The source of these data is patent US6897316B2, “Substituted 2-phenyl-4-quinolone-3-carboxylic acid compounds and their use as antitumor agents” (China Medical University, priority 2003, dated 2005).

This assay deals with OVCAR-4 (ovarian cancer). Put plainly: Growth inhibition in human cancer cell line panel, OVCAR-4. It is filed as cell-based. The following applies: 48 hr, SRB. The protocol: Compound IX-8 was evaluated growth inhibition activities against a panel of 39 human cancer cell lines including Human breast cancer MDA-MB-231 and the following human cancer cell lines were generously distributed by the National Cancer Institute (Frederick, Md.): lung cancer, NCI-H23, NCI-H226, NCI-H522, NCI-H460, A-549, DMS273 and DMS114; colon cancer, HGC-2998, KM-12, HT-29, HCT-15, and HCT-116; ovarian cancer, OVCAR-3, OVCAR-4, OVCAR-5, OVCAR-8, and SKOV-3; breast cancer, MCF-7; renal cancer, RXF-631L and ACHN; melanoma, LOX-IMVI; brain tumor, U251, SF-295, SF-539, SF-268, SNB-75, and SNB-78, and prostate cancer, DU-145 and PC-3. […]
The details of measuring cell growth inhibition are described elsewhere [Monks, A., Scudiero, D., Skehan, P., Shoemaker, R., Paull, K., Vistica, D., Hose, C., Langley, J., Cronise, P., Vaigro-Wolff, A., Gray-Goodrich, M., Campbell, H., Mayo, J., Boyd, M. Feasibility of a high-flux anticancer drug screen using a diverse panel of cultured human tumor cell lines. […] Then, the cell growth was determined according to the Sulforhodamine B assay, described by Skehan et al [Skehan, P., Storeng, R., Scudiero, D., Monks, A., McMahon, J., Vistica, D., Warren, J. T., Bokesch, H., Kenney, S., Boyd, M. R. New calorimetric cytotoxicity assay for anticancer-drug screening. […]

As a reminder, the GI50 is the concentration that inhibits growth by half.

As for `COc1ccc2[nH]c(-c3cccc(F)c3)c(C(=O)O)c(=O)c2c1` [IX-8, 3′-Fluoro-6-methoxy-2-phenyl-4-quinolone-3-carboxylic acid], the concentration for 50% growth inhibition (GI50) was 174 nM.
